Test results from the supplement of paper PMC11208160.

Test: recombinant UMI read abundance after kanamycin selection (control-corrected) (log10(CPM+1)); higher = more efficient recombination; extreme values may be limits of the assay; sequences stand for … in AGTGCAGAGAAAATCGGCCAGTTTTCTCTGCCTGCAGTCCGCATGCCGTGGGACCCCTTGGGTTCTAACCTGTTGCCTAGATTTATGCAGCGGACTGCCTTTCTCCCAAAGTGATAAACCGG…AGGTTGGTTTCACT; site = the 11-nt donor
Protocol: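 Pooled E. coli donor-specificity screen for the IS621 bridge recombinase. Each library member carries a reprogrammed 11-nt donor and a full-length LE bridge RNA expressed in cis from the natural promoter, with a paired donor-binding loop (8-nt LDG + 4-nt RDG) and a target-binding loop fixed to T5. It is co-electroporated with a T5 target plasmid; recombinase is induced with 0.07 mM IPTG and recombinants are selected on kanamycin. UMIs are counted as CPM, averaged over two biological replicates and corrected by the unselected control. Molecule = full bridge RNA written as DNA, built from the T5 scaffold: LDG = donor specificity nt 1-8, RDG = reverse complement of nt 8-11.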
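Further: IS621 bridge recombinase in Escherichia coli cells against a fixed T5 target plasmid.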

| Sequence | recombinant UMI read abundance (log10) |
| --- | --- |
| ACAGTATCATGGACCGGTTTTCCCGGTAATCCGTATTTGCA (site GCAGTATCTTG) | 2.41 |
| ACAGTATCATGGACCGGTTTTCCCGGTAATCCGTATTTGCA (site GCAGTCTCTTG) | 0.292 |
| ACAGTATCATGGACCGGTTTTCCCGGTAATCCGTATTTGCA (site GCCGTATCTTG) | 1.88 |
| ACAGTATCATGGACCGGTTTTCCCGGTAATCCGTATTTGCA (site TCACTATCTTG) | 0.822 |
| ACAGTATCATGGACCGGTTTTCCCGGTAATCCGTATTTGCA (site TCAGCATCTTG) | 2.37 |
| ACAGTATCATGGACCGGTTTTCCCGGTAATCCGTATTTGCA (site TCAGTAGCTTG) | 0.0987 |
| ACAGTATCATGGACCGGTTTTCCCGGTAATCCGTATTTGCA (site TCAGTATCTCG) | 0.00474 |
| ACAGTATCATGGACCGGTTTTCCCGGTAATCCGTATTTGCA (site TCAGTATCTTA) | 0 |
| ACAGTATCATGGACCGGTTTTCCCGGTAATCCGTATTTGCA (site TCAGTATCTTG) | 2.54 |
| ACAGTATCATGGACCGGTTTTCCCGGTAATCCGTATTTGCA (site TCAGTTTCTTG) | 1.26 |
| ACAGTATCATGGACCGGTTTTCCCGGTAATCCGTATTTGCA (site TCGGTATCTTG) | 0.0345 |
| ACAGTATCATGGACCGGTTTTCCCGGTAATCCGTATTTGCA (site TTAGTATCTTG) | 2.66 |
| ACAGTATCATGGACCGGTTTTCCCGGTAATCCGTATTTGGT (site ACAGTATCTAC) | 2.61 |
| ACAGTATCATGGACCGGTTTTCCCGGTAATCCGTATTTGGT (site ACAGTATCTTG) | 0.731 |
| ACAGTCACATGGACCGGTTTTCCCGGTAATCCGTATTTGCA (site ACAGTATCTTG) | 1.84 |
| ACAGTCACATGGACCGGTTTTCCCGGTAATCCGTATTTGCA (site ACAGTCACTTG) | 2.58 |
| ACAGTCTCATGGACCGGTTTTCCCGGTAATCCGTATTTGCA (site ACAGTATCTTG) | 2.26 |
| ACAGTCTCATGGACCGGTTTTCCCGGTAATCCGTATTTGCA (site ACAGTCTCTTG) | 3.22 |
| ACAGTCTCATGGACCGGTTTTCCCGGTAATCCGTATTTGCA (site ACAGTGTCTTG) | 2.28 |
| ACAGTCTCATGGACCGGTTTTCCCGGTAATCCGTATTTGCA (site ACAGTTTCTTG) | 0.155 |
| ACAGTCTCATGGACCGGTTTTCCCGGTAATCCGTATTTGCT (site ACAGTATCTTG) | 0 |
| ACAGTCTCATGGACCGGTTTTCCCGGTAATCCGTATTTGCT (site ACAGTCTCTAG) | 2.94 |

| Sequence | recombinant UMI read abundance (log10) |
| --- | --- |
| ACAGTGCCATGGACCGGTTTTCCCGGTAATCCGTATTTGAG (site ACAGTGCCTCT) | 0.285 |
| ACAGTGCCATGGACCGGTTTTCCCGGTAATCCGTATTTGCA (site ACAGTATCTTG) | 0.852 |
| ACAGTGCCATGGACCGGTTTTCCCGGTAATCCGTATTTGCA (site ACAGTGCCTTG) | 1.38 |
| ACAGTGTCATGGACCGGTTTTCCCGGTAATCCGTATTTGCA (site ACAGTATCTTG) | 3.35 |
| ACAGTGTCATGGACCGGTTTTCCCGGTAATCCGTATTTGCA (site ACAGTCTCTTG) | 2 |
| ACAGTGTCATGGACCGGTTTTCCCGGTAATCCGTATTTGCA (site ACAGTGTCTTG) | 3.29 |
| ACAGTGTCATGGACCGGTTTTCCCGGTAATCCGTATTTGCA (site ACAGTTTCTTG) | 0.818 |
| ACAGTTTCATGGACCGGTTTTCCCGGTAATCCGTATTTGCG (site ACAGTATCTTG) | 0 |
| ACAGTTTCATGGACCGGTTTTCCCGGTAATCCGTATTTGCG (site ACAGTTTCTCG) | 2.64 |
| ACATACACATGGACCGGTTTTCCCGGTAATCCGTATTTGAG (site ACATACACTCT) | 1.79 |
| ACATACTCATGGACCGGTTTTCCCGGTAATCCGTATTTGCA (site ACATACTCTTG) | 2.8 |
| ACATACTCATGGACCGGTTTTCCCGGTAATCCGTATTTGCA (site CCATACTCTTG) | 2.69 |
| ACATACTCATGGACCGGTTTTCCCGGTAATCCGTATTTGCA (site GCATACTCTTG) | 2.66 |
| ACATACTCATGGACCGGTTTTCCCGGTAATCCGTATTTGCA (site TCATACTCTTG) | 2.8 |
| ACATCTACATGGACCGGTTTTCCCGGTAATCCGTATTTGTC (site ACATCTACTAA) | 0.0236 |
| ACATCTACATGGACCGGTTTTCCCGGTAATCCGTATTTGTC (site ACATCTACTCA) | 0.0109 |
| ACATCTACATGGACCGGTTTTCCCGGTAATCCGTATTTGTC (site ACATCTACTGA) | 0 |
| ACATCTACATGGACCGGTTTTCCCGGTAATCCGTATTTGTC (site ACATCTACTTA) | 0.0124 |
| ACATCTACATGGACCGGTTTTCCCGGTAATCCGTATTTGTT (site ACATCTACTAA) | 0.142 |
| ACATCTACATGGACCGGTTTTCCCGGTAATCCGTATTTGTT (site ACATCTACTCA) | 0.0105 |
| ACATCTACATGGACCGGTTTTCCCGGTAATCCGTATTTGTT (site ACATCTACTGA) | 0 |
| ACATCTACATGGACCGGTTTTCCCGGTAATCCGTATTTGTT (site ACATCTACTTA) | 0.0357 |

| Sequence | recombinant UMI read abundance (log10) |
| --- | --- |
| ACATGCACATGGACCGGTTTTCCCGGTAATCCGTATTTGTC (site ACATGCACTGA) | 2.06 |
| ACATGCGCATGGACCGGTTTTCCCGGTAATCCGTATTTGAT (site ACATGCGCTAT) | 2.22 |
| ACATGTACATGGACCGGTTTTCCCGGTAATCCGTATTTGTG (site ACATATACTCA) | 0.616 |
| ACATGTACATGGACCGGTTTTCCCGGTAATCCGTATTTGTG (site ACATCTACTCA) | 0.00614 |
| ACATGTACATGGACCGGTTTTCCCGGTAATCCGTATTTGTG (site ACATGTACTCA) | 1.07 |
| ACATGTACATGGACCGGTTTTCCCGGTAATCCGTATTTGTG (site ACATTTACTCA) | 0 |
| ACATTGTCATGGACCGGTTTTCCCGGTAATCCGTATTTGCA (site ACAGTATCTTG) | 1.37 |
| ACATTGTCATGGACCGGTTTTCCCGGTAATCCGTATTTGCA (site ACATTGTCTTG) | 2.75 |
| ACCAAGTCATGGACCGGTTTTCCCGGTAATCCGTATTTGTG (site ACCAAGTCTCA) | 2.15 |
| ACCAATTCATGGACCGGTTTTCCCGGTAATCCGTATTTGCT (site ACCAATTCTAG) | 2.42 |
| ACCACGACATGGACCGGTTTTCCCGGTAATCCGTATTTGAC (site ACCACGACTGT) | 2.72 |
| ACCAGCCCATGGACCGGTTTTCCCGGTAATCCGTATTTGCT (site ACCAGCCCTAG) | 0.0684 |
| ACCCCAACATGGACCGGTTTTCCCGGTAATCCGTATTTGAC (site ACCCCAACTGT) | 2.49 |
| ACCCGTCCATGGACCGGTTTTCCCGGTAATCCGTATTTGAT (site AACCGTCCTAT) | 0.00657 |
| ACCCGTCCATGGACCGGTTTTCCCGGTAATCCGTATTTGAT (site ACCCGTCCTAT) | 0.224 |
| ACCCGTCCATGGACCGGTTTTCCCGGTAATCCGTATTTGAT (site AGCCGTCCTAT) | 0.0209 |
| ACCCGTCCATGGACCGGTTTTCCCGGTAATCCGTATTTGAT (site ATCCGTCCTAT) | 0.015 |
| ACCCGTCCATGGACCGGTTTTCCCGGTAATCCGTATTTGTA (site ACCCGTCCTTA) | 0.613 |
| ACCGTCTCATGGACCGGTTTTCCCGGTAATCCGTATTTGCA (site ACAGTATCTTG) | 0.902 |
| ACCGTCTCATGGACCGGTTTTCCCGGTAATCCGTATTTGCA (site ACCGTCTCTTG) | 2.85 |
| ACCGTGACATGGACCGGTTTTCCCGGTAATCCGTATTTGCA (site ACCGTGACTTG) | 2.4 |
